The text below walks through data of patent publication US20220324835A1 (Nurix Therapeutics, Inc., priority 2018, published 2022).

The test system of assay [1] is T-cell. Description: IL-2 secretion from T-cells co-stimulated with anti-CD3 and anti-CD28 antibody (Biological Example 2). It is filed as cell-based, human. Conditions: Homo sapiens, T-cell, primary human total T-cells, baseline = anti-CD3/anti-CD28 stimulated cells without inhibitor, read-out: IL-2 secretion, Anti-CD3/Anti-CD28 stimulation, fold change over baseline; for fold induction at 0.3 µM: 0.3 μM compound; for fold induction at 1 µM: 1 μM compound; for fold induction at 4 µM: 4 μM compound. The method, boiled down:
(§1)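 No assay protocol given; T-cells stimulated with anti-CD3 alone or anti-CD3 plus anti-CD28, with or without Cbl-b inhibitor. Activation read as IL-2 secretion or CD25 surface staining, expressed as fold over baseline from uninhibited cells […].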

For assay [2], the system named is T-cell. In words: CD25 cell surface staining on T-cells co-stimulated with anti-CD3 and anti-CD28 antibody (Biological Example 2). Conditions: Homo sapiens, T-cell, primary human total T-cells, baseline = anti-CD3/anti-CD28 stimulated cells without inhibitor, read-out: CD25 staining, Anti-CD3/Anti-CD28 stimulation, fold change over baseline; for fold induction at 0.3 µM: 0.3 μM compound; for fold induction at 1 µM: 1 μM compound; for fold induction at 4 µM: 4 μM compound. It is filed as cell-based, human. The method, boiled down: as §1

Another assay concerns the target Cbl-b (Homo sapiens, UniProt Q13191). Description: Cbl-b activity assay (Cbl-b inhibition assay), TR-FRET of Cbl-b interaction with UbcH5B-Ub. It is filed as biochemical. The conditions noted are these: assay buffer with 100 mM NaCl, 60 nM Src kinase; read-out: Cbl-b activity IC50. The method, boiled down:
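TR-FRET readout of Cbl-b binding to Bodipy-fluorescein N-terminally labeled Ub conjugated to UbcH5B C85K, measured with compound present. After compound incubation, 60 nM Src kinase with 1 mM ATP and 5 mM MgCl2 (final) was added for 1.5 h, then a further 1 h incubation; asterisked values used 50 mM NaCl buffer and 30 nM Src.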
Background: Time-resolved FRET reads energy transfer from a long-lived donor to a nearby acceptor.

The structures appear in SMILES notation. Bounds are passed on as bounds.

As usually defined, the IC50 is the concentration needed to halve the response being measured.

Sequence of Cbl-b (Q13191 36-427): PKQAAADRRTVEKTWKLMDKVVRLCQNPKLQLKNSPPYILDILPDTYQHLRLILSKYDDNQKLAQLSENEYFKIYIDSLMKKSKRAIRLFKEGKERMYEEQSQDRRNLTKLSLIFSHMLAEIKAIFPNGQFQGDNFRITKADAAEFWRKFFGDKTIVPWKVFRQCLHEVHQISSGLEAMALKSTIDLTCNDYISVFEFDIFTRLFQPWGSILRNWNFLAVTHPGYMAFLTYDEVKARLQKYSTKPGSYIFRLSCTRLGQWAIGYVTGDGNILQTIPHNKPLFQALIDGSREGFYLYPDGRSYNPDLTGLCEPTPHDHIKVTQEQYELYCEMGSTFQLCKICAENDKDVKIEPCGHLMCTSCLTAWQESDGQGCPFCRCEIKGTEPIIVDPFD

Consider `Cn1cnnc1CC1(c2cccc(N3Cc4c(cc(CN5C[C@H]6C[C@H]6C5)cc4C(F)(F)F)C3=O)c2)COC1` [Compound 429, 6-(((1R,5S)-3-azabicyclo[3.1.0]hexan-3-yl)methyl)-2-(3-(3-((4-methyl-4H-1,2,4-triazol-3-yl)methyl)oxetan-3-yl)phenyl)-4-(trifluoromethyl)isoindolin-1-one], for which, in the assay on T-cell [1], the fold induction at 0.3 µM is > 7.5, the fold induction at 1 µM was > 7.5 and the fold induction at 4 µM was > 7.5. In the assay on T-cell [2], the fold induction at 0.3 µM lay in the range of 1.31 to 1.5, the fold induction at 1 µM fell in the range of 1.31 to 1.5 and the fold induction at 4 µM lay in the range of 1.51 to 1.75. Also, the IC50 on Cbl-b is < 0.1 µM.
For the compound `Cn1cnnc1CC1(c2cccc(N3Cc4c(cc(CN5CCC[C@H](F)C5)cc4C(F)(F)F)C3=O)c2)COC1` [Compound 432, 6-{[(3S)-3-fluoropiperidin-1-yl]methyl}-2-(3-{3-[(4-methyl-4H-1,2,4-triazol-3-yl)methyl]oxetan-3-yl}phenyl)-4-(trifluoromethyl)-2,3-dihydro-1H-isoindol-1-one], in the assay on T-cell [1], the fold induction at 0.3 µM was > 7.5 and the fold induction at 1 µM was > 7.5. In the assay with T-cell [2], the fold induction at 0.3 µM is 1.31 to 1.5 and the fold induction at 1 µM fell in the range of 1.31 to 1.5. Besides, the IC50 at Cbl-b is < 0.1 µM.
In the case of `Cn1cnnc1C(F)(F)[C@](C)(F)c1cccc(N2Cc3c(cc(C(=O)N4CC[C@H](O)C4)cc3C(F)(F)F)C2=O)c1` [Compound 438, 6-((S)-3-hydroxypyrrolidine-1-carbonyl)-2-(3-((R)-1,1,2-trifluoro-1-(4-methyl-4H-1,2,4-triazol-3-yl)propan-2-yl)phenyl)-4-(trifluoromethyl)isoindolin-1-one], in the assay with T-cell [1], the fold induction at 0.3 µM fell in the range of 1.01 to 2.5, the fold induction at 1 µM lay within 2.51 to 5 and the fold induction at 4 µM was > 7.5. Moreover, in the assay on T-cell [2], the fold induction at 0.3 µM is 1.01 to 1.3, the fold induction at 1 µM fell in the range of 1.01 to 1.3 and the fold induction at 4 µM was 1.31 to 1.5. Moreover, the IC50 on Cbl-b is < 0.1 µM.
Turning to `Cn1cnnc1C(F)(F)[C@](C)(F)c1cccc(N2Cc3c(cc(N4CCNCC4)cc3C(F)(F)F)C2=O)c1` [Compound 442, (R)-6-(Piperazin-1-yl)-2-(3-(1,1,2-trifluoro-1-(4-methyl-4H-1,2,4-triazol-3-yl)propan-2-yl)phenyl)-4-(trifluoromethyl)isoindolin-1-one], in the assay on T-cell [1], the fold induction at 0.3 µM was 2.51 to 5, the fold induction at 1 µM was > 7.5 and the fold induction at 4 µM is > 7.5. Further, in the assay on T-cell [2], the fold induction at 0.3 µM was in the range of 1.31 to 1.5, the fold induction at 1 µM fell in the range of 1.51 to 1.75 and the fold induction at 4 µM is 1.51 to 1.75. In addition, the IC50 at Cbl-b was < 0.1 µM.
Turning to `Cn1cnnc1C(F)(F)[C@](C)(F)c1cccc(N2Cc3c(cc(CN4CC[C@H](F)C4)cc3C(F)(F)F)C2=O)c1` [Compound 447, 6-(((S)-3-fluoropyrrolidin-1-yl)methyl)-2-(3-((R)-1,1,2-trifluoro-1-(4-methyl-4H-1,2,4-triazol-3-yl)propan-2-yl)phenyl)-4-(trifluoromethyl)isoindolin-1-one], in the assay with T-cell [1], the fold induction at 0.3 µM fell in the range of 2.51 to 5, the fold induction at 1 µM is > 7.5 and the fold induction at 4 µM is > 7.5. In addition, in the assay on T-cell [2], the fold induction at 0.3 µM lay within 1.31 to 1.5, the fold induction at 1 µM was 1.51 to 1.75 and the fold induction at 4 µM was in the range of 1.51 to 1.75. The IC50 on Cbl-b is < 0.1 µM.
Regarding `Cn1cnnc1C(F)(F)[C@](C)(F)c1cccc(N2Cc3c(cc(CN4CCC(F)(F)C4)cc3C(F)(F)F)C2=O)c1` [Compound 448, (R)-6-((3,3-difluoropyrrolidin-1-yl)methyl)-2-(3-(1,1,2-trifluoro-1-(4-methyl-4H-1,2,4-triazol-3-yl)propan-2-yl)phenyl)-4-(trifluoromethyl)isoindolin-1-one], in the assay on T-cell [1], the fold induction at 0.3 µM lay in the range of 1.01 to 2.5, the fold induction at 1 µM lay within 2.51 to 5 and the fold induction at 4 µM is > 7.5. In the assay on T-cell [2], the fold induction at 0.3 µM was 1.01 to 1.3, the fold induction at 1 µM lay in the range of 1.01 to 1.3 and the fold induction at 4 µM was 1.31 to 1.5. In addition, the IC50 at Cbl-b is < 0.1 µM.
